Laboratory results published in publication PMC7476584, “Lipophilicity trends upon fluorination of isopropyl, cyclopropyl and 3-oxetanyl groups” (Beilstein Journal of Organic Chemistry, 2020).
Values joined by “and” are separate entries in the source; they are usually repeats but may differ in a detail not shown here. Identical values can stand only once. Like-named read-outs stand apart in the source and are kept apart here. Values belong to the compound of their own block, whether it stands above or below them.

Assays:
[1] = cited from earlier work
[2] = Shake-flask lipophilicity (logP, logD7.4) of literature examples; assay type: physicochemical; conditions: geminal dimethyl 1 to cyclopropyl 2
[3] = Table S1; ref Hansch, Leo, Hoekman, Exploring QSAR, 1995; cited from earlier work
[4] = design: method as in PMID 31414105, PMID 29999054; conditions: series B, reversed-phase HPLC; cited from earlier work
[5] = 19F NMR-based octanol/water logP determination; conditions: for logP: n-octanol/water; for logP / logP (individual measurement): octanol/water, 25 °C, 19F NMR
[6] = SMD implicit solvation, MN15; values taken from the literature; cited from earlier work
[7] = logP (average logP), triplicate
[8] = logP (individual measurement), single experiment
[9] = logP average with error (standard deviation), triplicate, column Error

Structure (SMILES): CN(C)CCCCc1ccc(C(C)(C)C)cc1 [compound 3]
logD7.4 ([1]; pH 7.4): 2.5

ΔlogD7.4 [2]: +0.73
ΔlogP [2]: +0.34
Structure (SMILES): O=C(c1ccc(CN2CCOCC2)cc1)N1CCN(C2CC2)CC1 [compound 2]

Structure (SMILES): CN(C)CCCCc1ccc(C2(C)COC2)cc1 [compound 4]
logD7.4 ([1]; shake-flask): -0.1
logP ([1]; shake-flask): 2.4

Structure (SMILES): CN(C)CCCCc1ccc(C2(F)COC2)cc1 [C2]
logD7.4 ([1]; pH 7.4): –0.5

Structure (SMILES): C[C@@](CCN1Cc2cc(C#CC#C[C@H]3C[C@@H]3CO)cn2C1=O)(C(=O)NO)S(C)(=O)=O [7a]
logD7.4 ([1]; pH 7.4): 1.3

Structure (SMILES): CCC(O)CC [3-pentanol]
Experimental logP for selected nonfluorinated alkanols [3]: 1.21

Structure (SMILES): FC1(F)CC1c1ccccc1 (centres unmarked) [B6]
logP [4]: +2.91

logP [5, 7]: 0.58
logP [5, 8]: 0.583
logP [5, 9]: 0.583
logP (individual measurement) ([5]; single experiment): +0.576 and +0.589
Structure (SMILES): CC(CO)C(F)F (centres unmarked) [D4, 3,3-difluoro-2-methylpropan-1-ol]

logP [5, 7]: 0.98
logP [5, 8]: 0.977
logP [5, 9]: 0.978
logP (individual measurement) ([5]; single experiment): +0.978 and +0.979
Structure (SMILES): CC(CO)C(F)(F)F (centres unmarked) [D5, 3,3,3-trifluoro-2-methylpropan-1-ol]

Structure (SMILES): F[C@@H]1[C@H](F)[C@@]1(F)c1ccccc1 [B2]
logP [4]: +2.56

Structure (SMILES): FC1(F)CC1(F)c1ccccc1 (centres unmarked) [B7]
logP [4]: +2.94

Structure (SMILES): CC(CO)CF (centres unmarked) [D3, 3-fluoro-2-methylpropan-1-ol]
logP (physchem; logP (average logP)): 0.29
logP (physchem; logP (individual measurement)): 0.28
logP (physchem; logP average with error (standard deviation)): 0.289

Structure (SMILES): c1ccc(C2CC2)cc1 [B1]
logP [4]: +3.40

Structure (SMILES): CCCCCCCO [1-heptanol]
Experimental logP for selected nonfluorinated alkanols [3]: 2.72

Structure (SMILES): C[C@@](CCN1Cc2cc(C#CC#C[C@@H]3C[C@H]3CO)cn2C1=O)(C(=O)NO)S(C)(=O)=O [7c]
logD7.4 ([1]; pH 7.4): 1.1

Structure (SMILES): CC(C)(C)CO [2,2-dimethylpropan-1-ol]
Experimental logP for selected nonfluorinated alkanols [3]: 1.31

Structure (SMILES): OCCC(F)(F)CF [G8]
logPtheor (DFT) [6]: 1.30

Structure (SMILES): OCCC(F)CF (centres unmarked) [G7, 3,4-difluorobutan-1-ol]
logPtheor (DFT) [6]: 1.06

Structure (SMILES): CCCCCC(C)O (centres unmarked) [2-heptanol]
Experimental logP for selected nonfluorinated alkanols [3]: 2.31

Structure (SMILES): CCCCC(O)CCC (centres unmarked) [4-octanol]
Experimental logP for selected nonfluorinated alkanols [3]: 2.68

Structure (SMILES): CN(C)CCCCc1ccc(C2COC2)cc1 [C1]
logD7.4 ([1]; pH 7.4): –0.1

Structure (SMILES): C[C@@](CCN1Cc2cc(C#CC#C[C@H]3C[C@]3(F)CO)cn2C1=O)(C(=O)NO)S(C)(=O)=O [7b]
logD7.4 ([1]; pH 7.4): 0.9

logP reduction ([5]; G9 to E2): 0.72 logP units
logP [5, 7]: -0.05
logP [5, 9]: -0.054
logP (individual measurement) ([5]; single experiment): -0.06
Structure (SMILES): OCC1(F)CC1 [E2, (1-fluorocyclopropyl)methanol]

Δ logP branched vs linear ([5]; D2 vs G2): 0.16
logP [5, 7]: 0.1
logP [5, 8]: 0.11
logP [5, 9]: 0.104
logP (individual measurement) ([5]; single experiment): +0.10
Structure (SMILES): CC(C)(F)CO [D2, 2-fluoro-2-methylpropan-1-ol]

Structure (SMILES): CCCCCCC(C)O (centres unmarked) [2-octanol]
Experimental logP for selected nonfluorinated alkanols [3]: 2.90

Structure (SMILES): C[C@@](CCN1Cc2cc(C#CC#C[C@@H]3C[C@@]3(F)CO)cn2C1=O)(C(=O)NO)S(C)(=O)=O [7d]
logD7.4 ([1]; pH 7.4): 0.9

Structure (SMILES): CC(C)C(C)O (centres unmarked) [3-methyl-2-butanol]
Experimental logP for selected nonfluorinated alkanols [3]: 1.28

Structure (SMILES): CCCC(O)CCC [4-heptanol]
Experimental logP for selected nonfluorinated alkanols [3]: 2.22

Structure (SMILES): CCCC(O)CC (centres unmarked) [3-hexanol]
Experimental logP for selected nonfluorinated alkanols [3]: 1.65

Structure (SMILES): CCCCC(C)O (centres unmarked) [2-hexanol]
Experimental logP for selected nonfluorinated alkanols [3]: 1.76
